Test results reported in patent publication EP0408294B1, “Use of an amylin antagonist for the manufacture of amedicament for the treatment of obesity and essential hypertension and related disorders” (AMYLIN PHARMACEUTICALS, INC., priority 1989, dated 1995).
Positions of bridges follow the written chain, without caps; N, C: chain ends. No end group written: not given here.

Columns and labels:
[1] = system: isolated soleus muscle; experiment: amylin antagonist assay: incorporation of radiolabelled glucose into glycogen in isolated soleus muscle; type: cell-based, rats; settings: 1000µU/mL insulin, 20nM amylin
Description: In a further experiment we have shown that the […] CGRP 8-37 also functions as a partial amylin antagonist. Insulin was obtained as Humulin-R, 100U/mL, recombinant human insulin (Eli Lilly, Indianapolis, IN). Amylin, obtained as rat amylin (Bachem, Torrance, CA) and 8-37 human CGRP (Bachem, Torrance CA) were also used. An antagonist assay was performed in vitro using the isolated soleus muscle from rats. It measured the rate of incorporation of radiolabelled glucose into muscle glycogen as follows: (1) under hormone-free conditions (zero insulin, zero amylin, zero hCGRP₈₋₃₇ [antagonist]); (2) under conditions of stimulation of glycogen formation with insulin (1000µU/mL insulin, zero amylin, zero antagonist); (3) under conditions where the near maximal stimulation of glycogen formation has been inhibited with amylin (1000µU/mL insulin, 20nM amylin, zero antagonist); and, (4) under conditions where the suppression of glycogen formation by amylin has been disinhibited by an antagonist to the amylin action (1000µU/mL insulin, 20nM amylin, range of concentrations of antagonist [0, 1nM, 10nM, 100nM, 300nM, 1µM, 10µM]) There were therefore […] (conditions 1,2,3 and […] of condition 4). […]

[2] = system: anaesthetised rats; experiment: hyperinsulinemic, euglycemic glucose clamp with CGRP infusion; type: in vivo, rat
Description: • Figure 1 indicates the effect of amylin on the insulin-stimulated fate of glucose uptake in isolated incubated skeletal muscles of the rat. • Figure 2a indicates the effect of a CGRP infusion on glucose uptake in an anaesthetised rat under conditions of hyperinsulinaemic, euglycaemic glucose clamp, in which insulin alone was initially infused, following by insulin and CGRP. Similar results have been obtained with an infusion of amylin. • Figure 2b indicates the effect of an infusion of CGRP in an anaesthetised rat under conditions of hyperinsulinaemic, euglycaemic clamp, in which insulin and CGRP were initially infused together, followed by cessation of the CGRP infusion. Similar results have been obtained with an infusion of amylin. • Figure 3 indicates the effect of CGRP on hepatic glucose output in anaesthetised rats, under conditions of hyperinsulinaemic, euglycaemic glucose clamp. Error bars give standard error of the mean. • Figure 4 indicates the effect of CGRP on insulin-stimulated glucose uptake in isolated BC3H-1 myocytes. • Figure 5 indicates the relationship between maximal insulin resistance, as measured by maximal insulin-stimulatable glucose disposal, and levels of serum CGRP-like immunoreactivity in the blood of a group of insulin-resistant type 2 diabetic human patients. […]

[3] = system: normal rats; experiment: intravenous amylin bolus in normal rats; type: in vivo
Description: Similar results have been obtained using amylin. We have also shown that amylin acutely produces diabetes (fasting hyperglycemia greater than 140 mg/dL) when administered intravenously. Eight normal rats were injected with a 100µg bolus of amylin (rat amylin, Bachem, Torrance, CA). An intravenous amylin bolus produced a profound hyperglycemia to diabetic levels within 15-30 minutes (usually around 200 mg/dL). This hyperglycemia persists for several hours. The hyperglycemia is partly accounted for by an increase in hepatic (endogenous) glucose output and partly by an increased impediment in peripheral glucose disposal. […] There is an increase in respiratory quotient (RQ) after amylin only when somatostatin is absent and insulin is allowed to increase in response to hyperglycemia. During somatostatin infusion (no endogenous insulin release), there is no change in RQ, indicating no change from lipid to carbohydrate fuel usage in response to amylin in the fasted animal.

[4] = system: red skeletal muscle; experiment: glycogen synthesis in amylin-treated skeletal muscle in vitro; type: cell-based, rat; settings: insulin at the concentration necessary for half-maximal stimulation in non amylin-treated muscles
Source text: (§1) In muscles treated with amylin, there was no response to insulin at the concentration necessary for half-maximal stimulation in non amylin-treated muscles. The effects of amylin were seen even in the presence of very low concentrations of insulin. Amylin produced a 30 percent reduction in the basal rate of glycogen synthesis in the presence of a basal concentration (1 µU/ml) of insulin. In marked contrast, amylin had no effect on either the basal or the insulin-stimulated rates of formation of CO₂ or triacyglycerol in isolated adipocytes. The effect of amylin treatment in muscle could only be overcome by increasing the concentration of insulin to the supra-physiological level of 1000 uU/ml.
• Figure 1 indicates the effect of amylin on the insulin-stimulated fate of glucose uptake in isolated incubated skeletal muscles of the rat. • Figure 2a indicates the effect of a CGRP infusion on glucose uptake in an anaesthetised rat under conditions of hyperinsulinaemic, euglycaemic glucose clamp, in which insulin alone was initially infused, following by insulin and CGRP. Similar results have been obtained with an infusion of amylin. • Figure 2b indicates the effect of an infusion of CGRP in an anaesthetised rat under conditions of hyperinsulinaemic, euglycaemic clamp, in which insulin and CGRP were initially infused together, followed by cessation of the CGRP infusion. […]

[5] = system: isolated adipocytes; experiment: formation of CO₂ or triacyglycerol in isolated adipocytes; type: cell-based
Source text: as §1
Amylin acts by reducing both basal and insulin-induced uptake of glucose into skeletal muscle, especially by reducing the rate of incorporation of glucose into glycogen, and also by reducing the rate of glucose uptake into muscle cells (Molina, M. et al., Science 1989; submitted). […] We have concluded that amylin causes the insulin-resistance in type 2 diabetes, probably in conjunction with CGRP and/or CGRP receptors.

In the case of “CGRP₈₋₃₇: 8-37 human CGRP (Bachem), sub-peptide of CGRP, partial amylin antagonist”, the “increment in the rate of glycogen synthesis from the amylin-inhibited level” value ([1]; antagonist 1nM to 10µM, maximal increment) is reported as “about 115%” and the EC50 ([1]; 4-parameter logistic fit, read-out: EC₅₀ for disinhibition (half maximal concentration)) is reported as 1.2 nM.
CGRP was tested, and the “glucose infusion rate, new steady state” value ([2]; Figure 2A protocol, CGRP 0.02 ug/kg/min from 80-150 minutes during constant insulin infusion 1.8 mU/kg/min) was 18.0 ± 0.1 mg/kg/min and the “rise of glucose disposal rate (GDR) over basal” value ([2]; Figure 2B protocol, 3H-glucose, last 20 mins of period, CGRP = CGRP plus insulin, insulin = insulin alone, basal GDR 11.2 ± 0.7) was 7.4 ± 1.6 mg/kg/min.
With “amylin: 37-amino acid peptide hormone from islet amyloid, Cys 2-7 disulfide bridge, amidated; rat amylin from Bachem used in tests (KCNTATCATQRLANFLVRSSNNLGPVLPPTNVGSNTY-NH2; disulfide 2-7; UniProt P12969 38-74, looked up)” the persistence of hyperglycemia ([3]; 100µg intravenous bolus of rat amylin) was “several hours”, the “hyperglycemia (glucose level reached)” value ([3]; 100µg intravenous bolus of rat amylin, eight normal rats) was “around 200 mg/dL” and the “respiratory quotient (RQ)” value ([3]; after amylin, somatostatin absent, insulin allowed to increase in response to hyperglycemia) was “increase”. The plasma lactate ([3]; after intravenous amylin bolus) was “transient increase”, the “respiratory quotient (RQ)” value ([3]; during somatostatin infusion (no endogenous insulin release), fasted animal) was “no change” and the “response to insulin in muscles treated with amylin” value [4] was “no response”. The “effect on basal or insulin-stimulated rates of formation of CO₂ or triacyglycerol” value [5] was “no effect”.
